Laboratory results from paper PMC7450057, “Enhancing intracellular accumulation and target engagement of PROTACs with reversible covalent chemistry” (Nature Communications, 2020).
Values joined by “and” are separate entries in the source; they are usually repeats but may differ in a detail not shown here. Equal entries are not always repeated.

Legend:
BTK = BTK (Homo sapiens, UniProt Q06187); assay: In vitro BTK kinase assay (PhosphoSens); format: biochemical; parameters: purchased SignalChem B10-10H-10
Description: BTK kinase activity inhibition IC50 was measured by PhosphoSens® Kinase Assay Kit (Assay Quant Technologies Inc., Cat.# CSKS-AQT0101K). […] Active recombinant BTK was purchased from SignalChem (Cat.# B10-10H-10). All the drugs (3 warhead control and 4 PROTACs) were dissolved in DMSO (10 mM). […] To calculate the IC50, subtract the background fluorescence determined with the “no kinase” control for each time point from the total signal to obtain corrected Relative Fluorescence Units (RFU) values. Plot the corrected RFU vs. Time for each inhibitor concentration and determine the initial reaction rates (slope of the linear portion) for each progress curve for each inhibitor concentration. Then plot velocity (RFU corrected/minute) vs [inhibitor] and determine the IC50 using a 4-parameter logistic fit.

MOLM-14 cells [1] = assay: AlamarBlue cell viability assay, MOLM-14; details: for MOLM-14 Cell Viability%: Figure 2f, 5 replicates
Description: The IC50 was calculated using GraphPad Prism software with a four-parameter dose-response curve fit.

MOLM-14 cells [2] = assay: Quantification of intracellular drug concentration by LC-MS; format: in vitro ADME; details: for Intracellular concentration: Concentration of compound, AVE / intracellular amount, AVE / intracellular amount / Intracellular concentration: Concentration of compound: 200 nM; for Intracellular concentration: Concentration of compound, AVE / intracellular amount, AVE: average of 3 replicates; for intracellular amount: initial amount 0.4000 nmol; for Intracellular concentration: Concentration of compound: sample volume 400 µL
Description: MOLM-14 cells were seeded at a density of 0.5 × 10^6 per mL in 2 mL medium. […] The samples were immediately centrifuged at 12,000 × g for 15 min at 4 °C, then removing the supernatant. In all, 400 μL of NP-40 lysis buffer was added to the cell pellet and mixed thoroughly. The mixtures were rocked for 1 h at 4 °C and centrifuged at 12,000 × g for 15 min at 4 °C. Then the supernatant was transferred to new EP tubes. In total, 20 µL supernatant was extracted with 180 µL of acetonitrile (containing internal standard: 250 nM of RNC-Ctrl) and centrifuged at the same conditions described above. Take 75 μL of supernatant for liquid chromatography-mass spectrometry analysis.
The mass spectrometer was operated in positive SIM ion mode (fragmentor 120 V; cycle time 0.6 s/cycle; Agilent Technologies 6130 Quadrupole LC/MS).

NanoLuc-CRBN fusion = molecular target: T1, NanoLuc-CRBN fusion (Homo sapiens, UniProt Q96SW2); assay: NanoBRET CRBN in-cell target engagement assay; format: cell-based; details: for NanoBRET(%): Figure 3b
T1 construct: host or cells: HEK 293T/17
Method in brief: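 Live cells expressing NanoLuc-CRBN with tracer and compound were incubated 2 h, then given Nano-Glo substrate plus extracellular NanoLuc inhibitor for 3 min at room temperature.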

Sequence of BTK (Q06187 whole entry): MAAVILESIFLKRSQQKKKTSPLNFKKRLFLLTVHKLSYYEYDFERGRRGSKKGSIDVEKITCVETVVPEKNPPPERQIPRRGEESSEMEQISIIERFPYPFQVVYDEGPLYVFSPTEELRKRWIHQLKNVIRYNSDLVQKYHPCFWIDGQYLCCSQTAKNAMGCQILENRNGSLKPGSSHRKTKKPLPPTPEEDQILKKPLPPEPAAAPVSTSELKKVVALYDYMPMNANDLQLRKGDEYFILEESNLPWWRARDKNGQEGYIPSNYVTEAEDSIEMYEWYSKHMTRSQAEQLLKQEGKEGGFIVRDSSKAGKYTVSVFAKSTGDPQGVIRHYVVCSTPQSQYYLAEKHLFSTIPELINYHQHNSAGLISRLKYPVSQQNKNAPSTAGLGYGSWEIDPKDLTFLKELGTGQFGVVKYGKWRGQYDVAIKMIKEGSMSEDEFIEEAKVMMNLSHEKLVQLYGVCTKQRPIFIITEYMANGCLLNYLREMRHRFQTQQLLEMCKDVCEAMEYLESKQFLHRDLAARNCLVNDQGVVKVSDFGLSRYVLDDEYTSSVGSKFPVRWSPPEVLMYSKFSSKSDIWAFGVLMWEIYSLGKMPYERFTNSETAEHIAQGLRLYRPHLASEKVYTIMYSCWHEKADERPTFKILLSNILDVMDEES
T1 sequence (Q96SW2 whole entry, the tested form may be a part): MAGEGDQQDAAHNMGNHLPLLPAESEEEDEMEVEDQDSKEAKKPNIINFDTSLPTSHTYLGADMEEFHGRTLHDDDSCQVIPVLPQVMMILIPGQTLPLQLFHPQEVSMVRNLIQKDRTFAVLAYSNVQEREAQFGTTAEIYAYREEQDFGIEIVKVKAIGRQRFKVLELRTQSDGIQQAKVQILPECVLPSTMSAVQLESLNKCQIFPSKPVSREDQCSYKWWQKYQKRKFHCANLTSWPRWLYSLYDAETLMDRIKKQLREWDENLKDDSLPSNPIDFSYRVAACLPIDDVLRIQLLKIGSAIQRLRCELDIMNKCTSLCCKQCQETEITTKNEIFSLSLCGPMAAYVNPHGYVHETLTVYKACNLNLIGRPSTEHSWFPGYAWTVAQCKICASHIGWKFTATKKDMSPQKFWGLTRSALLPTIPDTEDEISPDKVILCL
T1 sequence (Q16531 whole entry partner, the tested form may be a part): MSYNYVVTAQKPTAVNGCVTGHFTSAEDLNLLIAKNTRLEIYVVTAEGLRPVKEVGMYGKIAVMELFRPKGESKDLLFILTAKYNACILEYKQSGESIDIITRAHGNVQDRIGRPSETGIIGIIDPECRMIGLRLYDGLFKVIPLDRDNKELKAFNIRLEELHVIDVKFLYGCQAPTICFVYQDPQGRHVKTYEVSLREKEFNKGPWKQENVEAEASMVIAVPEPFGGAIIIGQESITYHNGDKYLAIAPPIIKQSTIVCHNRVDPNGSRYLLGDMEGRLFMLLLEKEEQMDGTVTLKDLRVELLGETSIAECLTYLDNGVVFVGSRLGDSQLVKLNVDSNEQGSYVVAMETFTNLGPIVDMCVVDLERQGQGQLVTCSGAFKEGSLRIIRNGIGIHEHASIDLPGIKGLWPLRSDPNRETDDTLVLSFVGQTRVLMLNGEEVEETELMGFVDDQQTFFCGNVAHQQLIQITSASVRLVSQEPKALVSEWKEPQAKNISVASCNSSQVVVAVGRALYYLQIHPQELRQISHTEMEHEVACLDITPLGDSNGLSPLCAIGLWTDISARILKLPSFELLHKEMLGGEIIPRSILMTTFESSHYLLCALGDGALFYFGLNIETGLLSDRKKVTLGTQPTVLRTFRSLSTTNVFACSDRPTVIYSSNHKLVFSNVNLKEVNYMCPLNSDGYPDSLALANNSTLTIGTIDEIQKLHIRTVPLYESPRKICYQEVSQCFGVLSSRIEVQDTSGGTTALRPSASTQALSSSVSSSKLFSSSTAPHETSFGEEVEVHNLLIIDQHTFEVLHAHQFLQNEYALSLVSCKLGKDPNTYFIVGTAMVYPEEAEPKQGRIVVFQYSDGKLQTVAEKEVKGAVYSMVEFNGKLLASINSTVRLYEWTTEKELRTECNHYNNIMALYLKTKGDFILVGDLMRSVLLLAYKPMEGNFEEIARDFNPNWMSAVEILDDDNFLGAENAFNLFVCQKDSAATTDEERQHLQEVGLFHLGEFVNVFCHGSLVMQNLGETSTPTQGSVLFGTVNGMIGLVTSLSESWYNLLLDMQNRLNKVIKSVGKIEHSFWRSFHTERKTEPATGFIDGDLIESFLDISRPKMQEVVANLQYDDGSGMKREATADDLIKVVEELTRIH

## CN(CCCNC(=O)CNc1cccc2c1C(=O)N(C1CCC(=O)NC1=O)C2=O)CCCC(=O)N1CCCC(n2nc(-c3ccc(Oc4ccccc4)cc3)c3c(N)ncnc32)C1 (stereo not shown) [RNC-1]
BTK; AssayQuant BTK assay kit, 2.5 nM BTK, 1 mM ATP, duplicates, read-out: BTK inhibition IC50
  IC50: 21.2 nM
BTK; Supplementary Figure 5, drug concentration 2.56 pM, replicates, read-out: Inhibition(%)
  activity at 2.56 pM: 87.5%
BTK; Supplementary Figure 5, drug concentration 12.8 pM, replicates, read-out: Inhibition(%)
  activity at 12.8 pM: 93%
BTK; Supplementary Figure 5, drug concentration 64 pM, replicates, read-out: Inhibition(%)
  activity at 64 pM: 88%
BTK; Supplementary Figure 5, drug concentration 320 pM, replicates, read-out: Inhibition(%)
  activity at 0.00032 µM: 96.2%
BTK; Supplementary Figure 5, drug concentration 1600 pM, replicates, read-out: Inhibition(%)
  activity at 0.0016 µM: 83.6%
BTK; Supplementary Figure 5, drug concentration 8000 pM, replicates, read-out: Inhibition(%)
  activity at 0.008 µM: 71.7%
BTK; Supplementary Figure 5, drug concentration 40000 pM, replicates, read-out: Inhibition(%)
  activity at 0.04 µM: 32.2%
BTK; Supplementary Figure 5, drug concentration 200000 pM, replicates, read-out: Inhibition(%)
  activity at 0.2 µM: 14%
BTK; Supplementary Figure 5, drug concentration 1000000 pM, replicates, read-out: Inhibition(%)
  activity at 1 µM: 4.94%
BTK; ratio of IC50 values
  diminished BTK inhibitory activity compared with corresponding warhead control: < 3 fold
MOLM-14 cells [1]; 1.00E-05 M
  MOLM-14 Cell Viability%: 22.564% and 21.8706% and 28.4317% and 19.6302% and 20.5903%
MOLM-14 cells [1]; 1.60E-08 M
  MOLM-14 Cell Viability%: 88.2112% and 80.7255% and 82.3435% and 80.6899% and 90.8606%
MOLM-14 cells [1]; 2.00E-06 M
  MOLM-14 Cell Viability%: 59.495% and 70.377% and 65.6472% and 60.4907% and 61.7354%
MOLM-14 cells [1]; 3.20E-09 M
  MOLM-14 Cell Viability%: 88.958% and 75.6935% and 86.6821% and 75.5334% and 84.3883%
MOLM-14 cells [1]; 4.00E-07 M
  MOLM-14 Cell Viability%: 78.8051% and 78.5206% and 78.325% and 79.1785% and 78.2717%
MOLM-14 cells [1]; 6.40E-10 M
  MOLM-14 Cell Viability%: 75.0356% and 77.596% and 87.8023% and 83.7127% and 80.761%
MOLM-14 cells [1]; 8.00E-08 M
  MOLM-14 Cell Viability%: 68.7056% and 84.1394% and 79.712% and 75.2134% and 77.276%
MOLM-14 cells [1]; Homo sapiens, MOLM-14, 72 h, read-out: Cell viability IC50, MOLM-14 cells, 72 h, Alamar Blue
  IC50: 4100 nM
MOLM-14 cells [2]; 5 min
  Intracellular concentration: Concentration of compound, AVE: 0.0812 µM
  intracellular amount, AVE: 0.0325 nmol
MOLM-14 cells [2]; 5 min, single replicates
  intracellular amount: 0.0283 nmol and 0.0378 nmol and 0.0313 nmol
  Intracellular concentration: Concentration of compound: 0.0707 µM and 0.0946 µM and 0.0782 µM
MOLM-14 cells [2]; 15 min
  Intracellular concentration: Concentration of compound, AVE: 0.0738 µM
  intracellular amount, AVE: 0.0295 nmol
MOLM-14 cells [2]; 15 min, single replicates
  intracellular amount: 0.0286 nmol and 0.0292 nmol and 0.0308 nmol
  Intracellular concentration: Concentration of compound: 0.0714 µM and 0.0730 µM and 0.0769 µM
MOLM-14 cells [2]; 30 min
  Intracellular concentration: Concentration of compound, AVE: 0.0681 µM
  intracellular amount, AVE: 0.0272 nmol
MOLM-14 cells [2]; 30 min, single replicates
  intracellular amount: 0.0255 nmol and 0.0275 nmol and 0.0287 nmol
  Intracellular concentration: Concentration of compound: 0.0636 µM and 0.0688 µM and 0.0717 µM
MOLM-14 cells [2]; 60 min
  Intracellular concentration: Concentration of compound, AVE: 0.0458 µM
  intracellular amount, AVE: 0.0183 nmol
MOLM-14 cells [2]; 60 min, single replicates
  intracellular amount: 0.0183 nmol and 0.0188 nmol and 0.0180 nmol
  Intracellular concentration: Concentration of compound: 0.0457 µM and 0.0469 µM and 0.0450 µM
MOLM-14 cells [2]; 90 min
  Intracellular concentration: Concentration of compound, AVE: 0.0470 µM
  intracellular amount, AVE: 0.0188 nmol
MOLM-14 cells [2]; 90 min, single replicates
  intracellular amount: 0.0195 nmol and 0.0181 nmol and 0.0187 nmol
  Intracellular concentration: Concentration of compound: 0.0488 µM and 0.0453 µM and 0.0468 µM
MOLM-14 cells [2]; 120 min
  Intracellular concentration: Concentration of compound, AVE: 0.0445 µM
  intracellular amount, AVE: 0.0178 nmol
MOLM-14 cells [2]; 120 min, single replicates
  intracellular amount: 0.0166 nmol and 0.0169 nmol and 0.0199 nmol
  Intracellular concentration: Concentration of compound: 0.0414 µM and 0.0423 µM and 0.0498 µM
MOLM-14 cells [2]; 240 min
  Intracellular concentration: Concentration of compound, AVE: 0.0399 µM
  intracellular amount, AVE: 0.0160 nmol
MOLM-14 cells [2]; 240 min, single replicates
  intracellular amount: 0.0161 nmol and 0.0163 nmol and 0.0155 nmol
  Intracellular concentration: Concentration of compound: 0.0402 µM and 0.0408 µM and 0.0387 µM
MOLM-14 cells [2]; 5 min, Mean
  Cellular concentration: 0.0325 nmol/million cells
MOLM-14 cells [2]; 5 min, single replicates, MOLM-14, 200 nM
  Cellular concentration: 0.0313 nmol/million cells and 0.0283 nmol/million cells and 0.0378 nmol/million cells
MOLM-14 cells [2]; 15 min, Mean
  Cellular concentration: 0.0295 nmol/million cells
MOLM-14 cells [2]; 15 min, single replicates, MOLM-14, 200 nM
  Cellular concentration: 0.0308 nmol/million cells and 0.0286 nmol/million cells and 0.0292 nmol/million cells
MOLM-14 cells [2]; 30 min, Mean
  Cellular concentration: 0.0272 nmol/million cells
MOLM-14 cells [2]; 30 min, single replicates, MOLM-14, 200 nM
  Cellular concentration: 0.0287 nmol/million cells and 0.0255 nmol/million cells and 0.0275 nmol/million cells
MOLM-14 cells [2]; 60 min, Mean
  Cellular concentration: 0.0183 nmol/million cells
MOLM-14 cells [2]; 60 min, single replicates, MOLM-14, 200 nM
  Cellular concentration: 0.0180 nmol/million cells and 0.018 nmol/million cells and 0.0183 nmol/million cells and 0.0188 nmol/million cells
MOLM-14 cells [2]; 90 min, Mean
  Cellular concentration: 0.0188 nmol/million cells
MOLM-14 cells [2]; 90 min, single replicates, MOLM-14, 200 nM
  Cellular concentration: 0.0187 nmol/million cells and 0.0195 nmol/million cells and 0.0181 nmol/million cells
MOLM-14 cells [2]; 120 min, Mean
  Cellular concentration: 0.0178 nmol/million cells
MOLM-14 cells [2]; 120 min, single replicates, MOLM-14, 200 nM
  Cellular concentration: 0.0199 nmol/million cells and 0.0166 nmol/million cells and 0.0169 nmol/million cells
MOLM-14 cells [2]; 240 min, Mean
  Cellular concentration: 0.0160 nmol/million cells and 0.016 nmol/million cells
MOLM-14 cells [2]; 240 min, single replicates, MOLM-14, 200 nM
  Cellular concentration: 0.0155 nmol/million cells and 0.0161 nmol/million cells and 0.0163 nmol/million cells
NanoLuc-CRBN fusion; 1.60E-08 M, triplicates
  NanoBRET(%): 102.085% and 102.001%
NanoLuc-CRBN fusion; 2.00E-06 M, triplicates
  NanoBRET(%): 49.8083% and 51.4483% and 59.2693%
NanoLuc-CRBN fusion; 3.20E-09 M, triplicates
  NanoBRET(%): 100.05% and 108.808% and 104.469%
NanoLuc-CRBN fusion; 4.00E-07 M, triplicates
  NanoBRET(%): 67.9857% and 66.2855% and 79.0983%
NanoLuc-CRBN fusion; 8.00E-08 M, triplicates
  NanoBRET(%): 74.8615% and 82.1247%
NanoLuc-CRBN fusion; HEK-293 cells, CRBN tracer 0.5 µM, triplicates, read-out: CRBN target engagement IC50,TE
  IC50: 1690 nM
NanoLuc-CRBN fusion; Kd (CRBN)/IC50,TE (CRBN)
  K′P,D (relative intracellular accumulation coefficient): 1.1
NanoLuc-CRBN fusion; from K′P,D values, CRBN (Table 2)
  intracellular accumulation of RC-1 relative to the compound: 16 fold
NanoLuc-CRBN fusion; ratio compound/RC-1
  CRBN target engagement IC50 relative to that of RC-1: 7 fold
